Results published in US7115592B2, “Phosphonate substituted pyrimidine compounds and methods for therapy” (priority 2003, dated 2006).
Converted amounts (≈) assume the structure as drawn. Marks after values point to notes of the source that are not given here.

What was measured:
[1] = tested on: MSV-induced tumor cell formation; experiment: Inhibitory activity against MSV-induced tumor cell formation in newborn NMRI mice; type: in vivo; conditions: for % survivors on day 12 / % tumor free on day 12 / Mean day of animal death / Mean day of tumor initiation: virus i.m. at day 1; for tumor formation: at 50 and 20 mg/kg; for order of antiviral efficacy: among the 5-cyano, 5-chloro and 5-methyl derivatives
Experimental: The 5-cyano (Example 8), 5-methyl (Example 5) and 5-chloro-2,4-diamino-6-[2-(phosphonomethoxy)ethoxy]pyrimidine were also evaluated for their antiretroviral activity in MSV-infected newborn NMRI mice in comparison with PMEA and (R)-PMPA. […] At 5 mg/kg, 90% of mice were free from tumor formation in the presence of 5-methyl derivative, compared with 70% and 10% in the presence of PMEA and (R)-PMPA. […] This phenomenon was also seen with PMEA at 50 and 20 mg/kg, but not with (R)-PMPA at 50 mg/kg.
Inhibitory activity of test compounds against MSV-induced tumor cell formation in newborn NMRI mice

[2] = Cytostatic activity in CEM cell cultures; conditions: human
HIV = experiment: microbe, parasite or virus in culture; type: cell-based; conditions: for EC50: Human immunodeficiency virus 1, HIV type not specified, read-out: inhibitory against HIV at
MSV = experiment: Antiviral activity against MSV in cell culture; type: cell-based, murine (MSV); conditions: Mus musculus; in vitro; read-out: inhibitory against MSV (EC50)
HIV-1 = experiment: microbe, parasite or virus in culture; type: cell-based; conditions: Human immunodeficiency virus 1; read-out: EC50 against HIV-1
VZV = experiment: Anti-VZV activity; type: cell-based
HIV-2 = experiment: microbe, parasite or virus in culture; type: cell-based; conditions: Human immunodeficiency virus 2; read-out: EC50 against HIV-2

Row | melting point | Structure (SMILES) | Mean day of animal death ([1]; 5 mg/kg i.p. at days 1-5) [days] | Mean day of tumor initiation ([1]; 5 mg/kg i.p. at days 1-5) [days] | % survivors on day 12 ([1]; 20 mg/kg i.p. at days 1-5) | Mean day of animal death ([1]; 20 mg/kg i.p. at days 1-5) [days] | Mean day of tumor initiation ([1]; 20 mg/kg i.p. at days 1-5) [days] | Mean day of animal death ([1]; 50 mg/kg i.p. at days 1-5) | Mean day of tumor initiation ([1]; 50 mg/kg i.p. at days 1-5) [days] | also measured
1 | 258 to 259 °C (dec.) | N#CCc1c(N)nc(N)nc1OCCOCP(=O)(O)O | – | – | – | – | – | – | – | –
2 | – | Nc1ncnc2c1ncn2CCOCP(=O)(O)O [PMEA, 9-(2-phosphonylmethoxyethyl)adenine] | > 12 | 9.33 ± 0.58 | 90% | 9.0 | > 12 | 8.80 ± 0.63^b day | > 12 | % survivors on day 12 ([1]; 5 mg/kg i.p. at days 1-5): 100%; % tumor free on day 12 ([1]; 5 mg/kg i.p. at days 1-5): 70%; % tumor free on day 12 ([1]; 20 mg/kg i.p. at days 1-5): 100%; % tumor free on day 12 ([1]; 50 mg/kg i.p. at days 1-5): 100%; tumor formation [1]: completely prevented; CC50 [2]: 11 µg/mL (≈ 40.3 µM)
3 | 228 to 229 °C | Nc1nc(N)c(CC(=O)O)c(OCCOCP(=O)(O)O)n1 (hydrate or solvate) | – | – | – | – | – | – | – | –
4 | – | Nc1nc(N)c(Cl)c(OCCOCP(=O)(O)O)n1 [Example 5-Cl, 5-chloro-2,4-diamino-6-[2-(phosphonomethoxy)ethoxy]pyrimidine] | 11.5 ± 0.69 | 6.70 ± 0.80 | (80%) | 11.8 ± 0.50 | 7.44 ± 1.42 | > 12 days | 8.76 ± 1.86 | % survivors on day 12 ([1]; 5 mg/kg i.p. at days 1-5): (45%); % tumor free on day 12 ([1]; 20 mg/kg i.p. at days 1-5): 10%; % survivors on day 12 ([1]; 50 mg/kg i.p. at days 1-5): 100%; % tumor free on day 12 ([1]; 50 mg/kg i.p. at days 1-5): 15%
5 | 230 to 231 °C | Nc1nc(N)c(-c2ccccc2)c(OCCOCP(=O)(O)O)n1 (hydrate or solvate) | – | – | – | – | – | – | – | –
6 | – | Nc1cc(OCCOCP(=O)(O)O)nc(N)n1 [5-unsubstituted compound, 2,4-diamino-6-[2-(phosphonomethoxy)ethoxy]pyrimidine, reference compound] | – | – | – | – | – | – | – | anti-HIV activity less potent than anti-MSV activity (HIV; ratio of anti-HIV to anti-MSV potency): 20 fold
7 | 199 to 200 °C | CCOC(=O)Cc1c(N)nc(N)nc1OCCOCP(=O)(O)O | – | – | – | – | – | – | – | –
8 | – | N#Cc1c(N)nc(N)nc1OCCOCP(=O)(O)O [Example 8, 5-Cyano-2,4-diamino-6-[2-(phosphonomethoxy)ethoxy]pyrimidine] | 10.9 ± 0.57 | 6.40 ± 0.70 | (60%) | 11.5 ± 0.58 | 7.20 ± 1.03 | > 12 days | 8.20 ± 1.62 | % survivors on day 12 ([1]; 50 mg/kg i.p. at days 1-5): 100%; order of antiviral efficacy [1]: least effective agent; EC50 (HIV): 0.8 to 3.3 µg/mL (≈ 2.77 to 11.4 µM); EC50 (MSV): 2.7 to 6 µg/mL (≈ 9.34 to 20.7 µM)
9 | – | Nc1nc(N)c(C=O)c(OCCOCP(=O)(O)O)n1 [Example 9, 5-Formyl-2,4-diamino-6-[2-(phosphonomethoxy)ethoxy]pyrimidine] | – | – | – | – | – | – | – | EC50 (HIV): 0.8 to 3.3 µg/mL (≈ 2.74 to 11.3 µM); EC50 (MSV): 2.7 to 6 µg/mL (≈ 9.24 to 20.5 µM)
10 | – | C[C@H](Cn1cnc2c(N)ncnc21)OCP(=O)(O)O [(R)-PMPA] | > 12 | 10.5 ± 2.12 | 100% | > 12 | > 12 | > 12 days | > 12 | % survivors on day 12 ([1]; 5 mg/kg i.p. at days 1-5): 100%; % tumor free on day 12 ([1]; 5 mg/kg i.p. at days 1-5): 10%; % tumor free on day 12 ([1]; 20 mg/kg i.p. at days 1-5): 100%; % survivors on day 12 ([1]; 50 mg/kg i.p. at days 1-5): 100%; % tumor free on day 12 ([1]; 50 mg/kg i.p. at days 1-5): 100%; tumor formation [1]: completely prevented
11 | – | Cc1c(N)nc(N)nc1OCCOCP(=O)(O)O [Example 5, 5-Methyl-2,4-diamino-6-[2-(phosphonomethoxy)ethoxy]pyrimidine] | > 12 | 8.0 | 100% | > 12 | > 12 | 10.1 ± 1.10^b day | > 12 | EC50 (HIV-1): 0.065 µg/mL (≈ 0.234 µM); % survivors on day 12 ([1]; 5 mg/kg i.p. at days 1-5): 100%; % tumor free on day 12 ([1]; 5 mg/kg i.p. at days 1-5): 90%; % tumor free on day 12 ([1]; 20 mg/kg i.p. at days 1-5): 100%; % tumor free on day 12 ([1]; 50 mg/kg i.p. at days 1-5): 100%; Mean day of animal death ([1]; 50 mg/kg i.p. at days 1-5, listed as 5-methyl-2,4-diamino-6-[2-(phosphonomethoxy)ethoxy]pyrimidine): 10.1 days; order of antiviral efficacy [1]: most effective agent; tumor formation [1]: completely prevented; anti-VZV activity (VZV): moderate anti-VZV activity; CC50 [2]: 1.3 to 4.1 µg/mL (≈ 4.67 to 14.7 µM); EC50 (MSV): 0.04 to 0.06 µg/mL (≈ 0.144 to 0.216 µM); EC50 (HIV-2): 0.065 µg/mL (≈ 0.234 µM)
12 | 241 to 242 °C | Nc1nc(N)c(Cc2ccccc2)c(OCCOCP(=O)(O)O)n1 (hydrate or solvate) | – | – | – | – | – | – | – | –
13 | 255 to 256 °C | Nc1nc(N)c(C2CC2)c(OCCOCP(=O)(O)O)n1 | – | – | – | – | – | – | – | –

Row | Structure (SMILES) | melting point | Mean day of animal death ([1]; 5 mg/kg i.p. at days 1-5) [days] | Mean day of tumor initiation ([1]; 5 mg/kg i.p. at days 1-5) [days] | % survivors on day 12 ([1]; 20 mg/kg i.p. at days 1-5) | Mean day of animal death ([1]; 20 mg/kg i.p. at days 1-5) [days] | Mean day of tumor initiation ([1]; 20 mg/kg i.p. at days 1-5) [days] | Mean day of animal death ([1]; 50 mg/kg i.p. at days 1-5) | Mean day of tumor initiation ([1]; 50 mg/kg i.p. at days 1-5) [days] | also measured
14 | Nc1nc(N)c(C=O)c(OCCOCP(=O)(O)O)n1 (hydrate or solvate) [Example 9, 5-Formyl-2,4-diamino-6-[2-(phosphonomethoxy)ethoxy]pyrimidine] | 225 to 227 °C | – | – | – | – | – | – | – | –
